Data published in article PMC9817970 (Cancers, 2022).

Experiments:
Assay in all cases: Kinase panel profiling
Assay type in all cases: biochemical
Settings in all cases: 10 μM ATP
[1] = biological target: T1, CAMK1g (Homo sapiens, UniProt Q96NX5)
T1 construct: purchased Reaction Biology Corp
Description: (§1) Kinase panel profiling was conducted by Reaction Biology Corp. (San Diego, CA, USA). A single dose (1.0 μM) of 6r was tested against 371 recombinant human kinases in the presence of 10 μM ATP.

[2] = biological target: T2, NIM1 (Homo sapiens, UniProt Q8IY84)
T2 construct: purchased Reaction Biology Corp
Description: as §1

[3] = biological target: T3, CDK7/cyclin H (Homo sapiens, UniProt P50613)
T3 construct: purchased Reaction Biology Corp
Description: as §1

[4] = biological target: T4, PHKg1 (Homo sapiens, UniProt Q16816)
T4 construct: purchased Reaction Biology Corp
Description: as §1

[5] = biological target: T5, STK33 (Homo sapiens, UniProt Q9BYT3)
T5 construct: purchased Reaction Biology Corp
Description: as §1

[6] = biological target: T6, EPHA1 (Homo sapiens, UniProt P21709)
T6 construct: purchased Reaction Biology Corp
Description: as §1

[7] = biological target: T7, EPHB4 (Homo sapiens, UniProt P54760)
T7 construct: purchased Reaction Biology Corp
Description: as §1

[8] = biological target: T8, MKK4 (Homo sapiens, UniProt P45985)
T8 construct: purchased Reaction Biology Corp
Description: as §1

[9] = biological target: T9, TYRO3/SKY (Homo sapiens, UniProt Q06418)
T9 construct: purchased Reaction Biology Corp
Description: as §1

[10] = biological target: T10, AKT1 (Homo sapiens, UniProt P31749)
T10 construct: purchased Reaction Biology Corp
Description: as §1

[11] = biological target: T11, EPHA6 (Homo sapiens, UniProt Q9UF33)
T11 construct: purchased Reaction Biology Corp
Description: as §1

[12] = biological target: T12, AURORA C (Homo sapiens, UniProt Q9UQB9)
T12 construct: purchased Reaction Biology Corp
Description: as §1

[13] = biological target: T13, CDK4/cyclin D3 (Homo sapiens, UniProt P11802)
T13 construct: purchased Reaction Biology Corp
Description: as §1

[14] = biological target: T14, p70S6Kb/RPS6KB2 (Homo sapiens, UniProt Q9UBS0)
T14 construct: purchased Reaction Biology Corp
Description: as §1

[15] = biological target: T15, COT1/MAP3K8 (Homo sapiens, UniProt P41279)
T15 construct: purchased Reaction Biology Corp
Description: as §1

[16] = biological target: T16, WEE1 (Homo sapiens, UniProt P30291)
T16 construct: purchased Reaction Biology Corp
Description: as §1

[17] = biological target: T17, DAPK1 (Homo sapiens, UniProt P53355)
T17 construct: purchased Reaction Biology Corp
Description: as §1

[18] = biological target: T18, DCAMKL2 (Homo sapiens, UniProt Q8N568)
T18 construct: purchased Reaction Biology Corp
Description: as §1

[19] = biological target: T19, KDR/VEGFR2 (Homo sapiens, UniProt P35968)
T19 construct: purchased Reaction Biology Corp
Description: as §1

[20] = biological target: T20, RSK3 (Homo sapiens, UniProt Q15349)
T20 construct: purchased Reaction Biology Corp
Description: as §1

[21] = biological target: T21, MNK2 (Homo sapiens, UniProt Q9HBH9)
T21 construct: purchased Reaction Biology Corp
Description: as §1

[22] = biological target: T22, EPHB2 (Homo sapiens, UniProt P29323)
T22 construct: purchased Reaction Biology Corp
Description: as §1

[23] = biological target: T23, PYK2 (Homo sapiens, UniProt Q14289)
T23 construct: purchased Reaction Biology Corp
Description: as §1

[24] = biological target: T24, TAOK3/JIK (Homo sapiens, UniProt Q9H2K8)
T24 construct: purchased Reaction Biology Corp
Description: as §1

[25] = biological target: T25, CAMK2g (Homo sapiens, UniProt Q13555)
T25 construct: purchased Reaction Biology Corp
Description: as §1

[26] = biological target: T26, LRRK2 (Homo sapiens, UniProt Q5S007)
T26 construct: purchased Reaction Biology Corp
Description: as §1

[27] = biological target: T27, ASK1/MAP3K5 (Homo sapiens, UniProt Q99683)
T27 construct: purchased Reaction Biology Corp
Description: as §1

[28] = biological target: T28, IGF1R (Homo sapiens, UniProt P08069)
T28 construct: purchased Reaction Biology Corp
Description: as §1

[29] = biological target: T29, MST3/STK24 (Homo sapiens, UniProt Q9Y6E0)
T29 construct: purchased Reaction Biology Corp
Description: as §1

[30] = biological target: T30, CSK (Homo sapiens, UniProt P41240)
T30 construct: purchased Reaction Biology Corp
Description: as §1

[31] = biological target: T31, MLK4 (Homo sapiens, UniProt Q5TCX8)
T31 construct: purchased Reaction Biology Corp
Description: as §1

[32] = biological target: T32, MYLK4 (Homo sapiens, UniProt Q86YV6)
T32 construct: purchased Reaction Biology Corp
Description: as §1

[33] = biological target: T33, ALK6/BMPR1B (Homo sapiens, UniProt O00238)
T33 construct: purchased Reaction Biology Corp
Description: as §1

[34] = biological target: T34, HIPK4 (Homo sapiens, UniProt Q8NE63)
T34 construct: purchased Reaction Biology Corp
Description: as §1

[35] = biological target: T35, EPHA8 (Homo sapiens, UniProt P29322)
T35 construct: purchased Reaction Biology Corp
Description: as §1

[36] = biological target: T36, FAK/PTK2 (Homo sapiens, UniProt Q05397)
T36 construct: purchased Reaction Biology Corp
Description: as §1

[37] = biological target: T37, LATS2 (Homo sapiens, UniProt Q9NRM7)
T37 construct: purchased Reaction Biology Corp
Description: as §1

[38] = biological target: T38, CAMK2d (Homo sapiens, UniProt Q13557)
T38 construct: purchased Reaction Biology Corp
Description: as §1

[39] = biological target: T39, NLK (Homo sapiens, UniProt Q9UBE8)
T39 construct: purchased Reaction Biology Corp
Description: as §1

[40] = biological target: T40, RAF1 (Homo sapiens, UniProt P04049)
T40 construct: purchased Reaction Biology Corp
Description: as §1

[41] = biological target: T41, CHK1 (Homo sapiens, UniProt O14757)
T41 construct: purchased Reaction Biology Corp
Description: as §1

[42] = biological target: T42, ABL1 (Homo sapiens, UniProt P00519)
T42 construct: purchased Reaction Biology Corp
Description: as §1

T41 sequence (O14757 whole entry): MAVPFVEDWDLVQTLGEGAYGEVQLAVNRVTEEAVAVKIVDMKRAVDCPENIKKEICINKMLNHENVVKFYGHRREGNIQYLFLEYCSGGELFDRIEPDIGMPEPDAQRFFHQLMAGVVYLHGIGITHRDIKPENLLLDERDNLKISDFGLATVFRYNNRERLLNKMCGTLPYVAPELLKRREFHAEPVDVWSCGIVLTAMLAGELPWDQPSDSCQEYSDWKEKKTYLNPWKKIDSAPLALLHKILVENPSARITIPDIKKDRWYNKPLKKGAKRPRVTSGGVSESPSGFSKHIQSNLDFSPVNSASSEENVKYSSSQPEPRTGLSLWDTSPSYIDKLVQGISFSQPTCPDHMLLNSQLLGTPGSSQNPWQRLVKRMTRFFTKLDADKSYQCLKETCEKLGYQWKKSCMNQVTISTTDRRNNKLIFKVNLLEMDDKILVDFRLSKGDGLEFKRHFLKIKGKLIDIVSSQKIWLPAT
T3 sequence (P50613 whole entry): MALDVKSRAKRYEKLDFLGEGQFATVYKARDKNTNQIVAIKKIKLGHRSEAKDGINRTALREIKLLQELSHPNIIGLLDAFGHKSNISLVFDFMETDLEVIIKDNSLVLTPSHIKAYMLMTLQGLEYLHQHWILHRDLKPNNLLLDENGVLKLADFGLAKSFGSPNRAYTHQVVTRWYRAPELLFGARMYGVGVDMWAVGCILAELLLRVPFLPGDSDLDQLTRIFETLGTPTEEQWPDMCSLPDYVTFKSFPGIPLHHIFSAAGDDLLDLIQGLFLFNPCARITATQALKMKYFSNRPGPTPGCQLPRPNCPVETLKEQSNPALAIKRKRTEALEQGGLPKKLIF
T3 sequence (P51946 whole entry partner): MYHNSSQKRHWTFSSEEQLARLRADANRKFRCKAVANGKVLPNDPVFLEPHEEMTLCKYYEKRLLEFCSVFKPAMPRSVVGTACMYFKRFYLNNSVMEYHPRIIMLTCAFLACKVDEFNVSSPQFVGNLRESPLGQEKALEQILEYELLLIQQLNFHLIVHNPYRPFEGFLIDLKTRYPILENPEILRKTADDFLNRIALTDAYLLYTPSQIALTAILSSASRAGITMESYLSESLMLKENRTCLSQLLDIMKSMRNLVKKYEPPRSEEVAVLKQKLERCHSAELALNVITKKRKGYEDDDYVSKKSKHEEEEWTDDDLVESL
T3 sequence (P51948 whole entry partner): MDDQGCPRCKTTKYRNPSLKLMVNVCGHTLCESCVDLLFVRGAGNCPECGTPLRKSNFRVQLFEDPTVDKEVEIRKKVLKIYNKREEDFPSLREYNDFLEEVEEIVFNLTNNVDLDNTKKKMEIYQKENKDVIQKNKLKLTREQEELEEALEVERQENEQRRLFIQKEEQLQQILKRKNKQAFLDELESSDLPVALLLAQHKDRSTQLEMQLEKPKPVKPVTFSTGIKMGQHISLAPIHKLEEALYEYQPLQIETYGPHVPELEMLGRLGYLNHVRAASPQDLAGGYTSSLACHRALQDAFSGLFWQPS
T15 sequence (P41279 whole entry): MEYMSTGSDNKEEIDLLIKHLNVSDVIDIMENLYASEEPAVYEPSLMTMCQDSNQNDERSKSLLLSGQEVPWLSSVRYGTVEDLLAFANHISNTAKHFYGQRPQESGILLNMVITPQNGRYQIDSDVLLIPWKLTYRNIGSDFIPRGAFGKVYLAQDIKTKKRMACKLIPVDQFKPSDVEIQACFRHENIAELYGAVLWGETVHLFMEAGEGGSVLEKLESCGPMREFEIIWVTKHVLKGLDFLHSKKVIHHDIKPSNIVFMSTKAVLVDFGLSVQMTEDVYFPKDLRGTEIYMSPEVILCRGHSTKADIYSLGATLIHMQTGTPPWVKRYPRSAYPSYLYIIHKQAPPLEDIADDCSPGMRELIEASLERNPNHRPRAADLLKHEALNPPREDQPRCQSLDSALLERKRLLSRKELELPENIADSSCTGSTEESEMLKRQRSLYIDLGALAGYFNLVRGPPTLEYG
T36 sequence (Q05397 whole entry): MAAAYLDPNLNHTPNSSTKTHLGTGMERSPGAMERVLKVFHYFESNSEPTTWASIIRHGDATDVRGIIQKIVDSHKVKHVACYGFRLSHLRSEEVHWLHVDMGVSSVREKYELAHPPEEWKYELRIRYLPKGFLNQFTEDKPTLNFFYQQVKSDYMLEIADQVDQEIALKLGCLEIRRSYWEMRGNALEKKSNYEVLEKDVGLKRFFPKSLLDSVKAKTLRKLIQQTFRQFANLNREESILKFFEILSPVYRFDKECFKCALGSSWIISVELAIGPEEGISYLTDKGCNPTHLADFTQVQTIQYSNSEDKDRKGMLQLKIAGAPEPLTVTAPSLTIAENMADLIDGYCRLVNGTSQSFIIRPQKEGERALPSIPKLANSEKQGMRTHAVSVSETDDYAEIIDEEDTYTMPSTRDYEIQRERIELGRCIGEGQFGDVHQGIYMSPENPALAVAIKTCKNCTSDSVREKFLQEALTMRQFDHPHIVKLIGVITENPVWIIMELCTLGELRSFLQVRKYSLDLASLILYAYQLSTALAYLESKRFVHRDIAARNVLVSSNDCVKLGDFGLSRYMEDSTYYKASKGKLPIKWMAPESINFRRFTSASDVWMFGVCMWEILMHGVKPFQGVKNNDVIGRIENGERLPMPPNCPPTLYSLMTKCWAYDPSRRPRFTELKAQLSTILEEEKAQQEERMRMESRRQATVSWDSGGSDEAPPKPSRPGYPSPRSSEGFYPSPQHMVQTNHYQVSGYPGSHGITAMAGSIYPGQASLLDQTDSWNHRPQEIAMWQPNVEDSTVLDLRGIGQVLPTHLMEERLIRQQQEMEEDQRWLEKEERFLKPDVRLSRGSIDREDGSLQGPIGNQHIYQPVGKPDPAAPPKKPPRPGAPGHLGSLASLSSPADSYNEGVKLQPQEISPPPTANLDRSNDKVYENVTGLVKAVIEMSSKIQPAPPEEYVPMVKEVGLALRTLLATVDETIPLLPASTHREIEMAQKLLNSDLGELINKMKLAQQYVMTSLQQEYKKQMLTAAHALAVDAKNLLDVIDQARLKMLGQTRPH
T4 sequence (Q16816 whole entry): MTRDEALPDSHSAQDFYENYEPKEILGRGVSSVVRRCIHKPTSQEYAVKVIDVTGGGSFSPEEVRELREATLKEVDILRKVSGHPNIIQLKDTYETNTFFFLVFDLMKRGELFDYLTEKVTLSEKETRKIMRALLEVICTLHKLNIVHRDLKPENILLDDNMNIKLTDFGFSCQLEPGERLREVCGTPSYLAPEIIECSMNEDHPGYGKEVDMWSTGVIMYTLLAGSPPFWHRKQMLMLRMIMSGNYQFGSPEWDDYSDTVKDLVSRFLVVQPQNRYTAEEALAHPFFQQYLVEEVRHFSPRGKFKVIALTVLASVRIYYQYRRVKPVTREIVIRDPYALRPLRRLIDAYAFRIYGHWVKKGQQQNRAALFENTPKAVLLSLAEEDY
T18 sequence (Q8N568 whole entry): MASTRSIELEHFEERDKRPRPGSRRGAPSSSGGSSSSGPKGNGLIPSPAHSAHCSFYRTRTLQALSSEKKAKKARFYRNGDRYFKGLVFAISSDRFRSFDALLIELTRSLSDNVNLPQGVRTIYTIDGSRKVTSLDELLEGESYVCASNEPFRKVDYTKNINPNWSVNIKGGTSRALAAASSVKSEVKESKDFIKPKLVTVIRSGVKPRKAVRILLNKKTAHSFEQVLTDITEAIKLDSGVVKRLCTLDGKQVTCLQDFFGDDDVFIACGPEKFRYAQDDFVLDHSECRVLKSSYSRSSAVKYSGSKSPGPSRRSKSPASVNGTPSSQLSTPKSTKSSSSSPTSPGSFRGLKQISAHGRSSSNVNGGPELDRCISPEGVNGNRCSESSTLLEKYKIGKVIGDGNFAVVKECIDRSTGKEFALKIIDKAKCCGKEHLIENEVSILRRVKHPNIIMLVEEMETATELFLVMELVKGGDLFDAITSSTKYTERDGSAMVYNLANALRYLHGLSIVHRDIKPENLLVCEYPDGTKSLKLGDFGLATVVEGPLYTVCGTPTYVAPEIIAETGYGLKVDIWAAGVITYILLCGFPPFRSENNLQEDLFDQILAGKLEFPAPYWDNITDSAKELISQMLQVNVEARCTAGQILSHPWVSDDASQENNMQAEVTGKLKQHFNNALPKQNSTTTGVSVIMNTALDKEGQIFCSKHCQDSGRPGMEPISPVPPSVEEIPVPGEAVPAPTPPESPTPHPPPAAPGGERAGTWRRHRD
T30 sequence (P41240 whole entry): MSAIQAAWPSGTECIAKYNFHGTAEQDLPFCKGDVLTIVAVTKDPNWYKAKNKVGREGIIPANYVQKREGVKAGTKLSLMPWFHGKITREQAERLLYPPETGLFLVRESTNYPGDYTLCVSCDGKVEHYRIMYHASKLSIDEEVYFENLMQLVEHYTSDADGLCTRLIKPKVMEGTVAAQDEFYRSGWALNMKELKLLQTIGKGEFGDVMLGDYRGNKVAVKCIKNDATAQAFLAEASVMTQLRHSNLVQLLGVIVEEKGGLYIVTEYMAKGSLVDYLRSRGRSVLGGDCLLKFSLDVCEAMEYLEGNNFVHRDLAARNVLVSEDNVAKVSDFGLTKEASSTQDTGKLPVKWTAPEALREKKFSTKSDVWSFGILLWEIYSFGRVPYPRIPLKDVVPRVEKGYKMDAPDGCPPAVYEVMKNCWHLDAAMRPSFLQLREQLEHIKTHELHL
T32 sequence (Q86YV6 whole entry): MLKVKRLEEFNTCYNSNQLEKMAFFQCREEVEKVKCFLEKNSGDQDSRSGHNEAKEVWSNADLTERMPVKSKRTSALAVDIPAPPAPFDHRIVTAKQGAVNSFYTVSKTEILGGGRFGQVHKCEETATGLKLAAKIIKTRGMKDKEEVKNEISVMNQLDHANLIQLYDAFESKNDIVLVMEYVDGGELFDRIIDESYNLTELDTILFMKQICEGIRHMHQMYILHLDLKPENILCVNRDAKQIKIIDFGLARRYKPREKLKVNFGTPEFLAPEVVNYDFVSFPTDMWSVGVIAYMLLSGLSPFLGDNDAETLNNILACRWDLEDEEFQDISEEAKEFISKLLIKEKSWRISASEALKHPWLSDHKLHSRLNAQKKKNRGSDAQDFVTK

Question: Which inhibition at 1 µM [1] does the source give for Cc1ccc(NC(=O)c2ccc(CN3CCN(C)CC3)c(C(F)(F)F)c2)cc1-c1cnc2sc(N)nc2c1 [6r] here?
Answer: The inhibition at 1 µM was 20.8%.

Question: What about the inhibition at 1 µM [2] of the same compound?
Answer: The inhibition at 1 µM was 1.3%.

Question: And the inhibition at 1 µM [3]?
Answer: Its inhibition at 1 µM is 3.2%.

Question: And the inhibition at 1 µM [4]?
Answer: Its inhibition at 1 µM is 19.6%.

Question: What about the inhibition at 1 µM [5] of the same compound?
Answer: The inhibition at 1 µM was 9.5%.

Question: And the inhibition at 1 µM [6]?
Answer: The inhibition at 1 µM was 8.2%.

Question: What about the inhibition at 1 µM [7] of the same compound?
Answer: The inhibition at 1 µM was 27.3%.

Question: And the inhibition at 1 µM [8]?
Answer: Its inhibition at 1 µM is 6%.

Question: And the inhibition at 1 µM [9]?
Answer: The inhibition at 1 µM was 14.6%.

Question: And the inhibition at 1 µM [10]?
Answer: Its inhibition at 1 µM is 0%.

Question: What about the inhibition at 1 µM [11] of the same compound?
Answer: Its inhibition at 1 µM is 39.9%.

Question: And the inhibition at 1 µM [12]?
Answer: Its inhibition at 1 µM is 4.9%.

Question: And the inhibition at 1 µM [13]?
Answer: The inhibition at 1 µM was 9.8%.

Question: And the inhibition at 1 µM [14]?
Answer: Its inhibition at 1 µM is 34%.

Question: What about the inhibition at 1 µM [15] of the same compound?
Answer: The inhibition at 1 µM was 9.2%.

Question: And the inhibition at 1 µM [16]?
Answer: Its inhibition at 1 µM is 0%.

Question: What about the inhibition at 1 µM [17] of the same compound?
Answer: The inhibition at 1 µM was 10.1%.

Question: And the inhibition at 1 µM [18]?
Answer: Its inhibition at 1 µM is 0%.

Question: And the inhibition at 1 µM [19]?
Answer: The inhibition at 1 µM was 77.8%.

Question: What about the inhibition at 1 µM [20] of the same compound?
Answer: Its inhibition at 1 µM is 5.4%.

Question: And the inhibition at 1 µM [21]?
Answer: The inhibition at 1 µM was 0%.

Question: And the inhibition at 1 µM [22]?
Answer: Its inhibition at 1 µM is 38.9%.

Question: And the inhibition at 1 µM [23]?
Answer: Its inhibition at 1 µM is 48.1%.

Question: What about the inhibition at 1 µM [24] of the same compound?
Answer: Its inhibition at 1 µM is 17.8%.

Question: And the inhibition at 1 µM [25]?
Answer: Its inhibition at 1 µM is 0%.

Question: And the inhibition at 1 µM [26]?
Answer: Its inhibition at 1 µM is 5.1%.

Question: And the inhibition at 1 µM [27]?
Answer: Its inhibition at 1 µM is 0%.

Question: And the inhibition at 1 µM [28]?
Answer: The inhibition at 1 µM was 0%.

Question: What about the inhibition at 1 µM [29] of the same compound?
Answer: The inhibition at 1 µM was 12.5%.

Question: And the inhibition at 1 µM [30]?
Answer: Its inhibition at 1 µM is 41.3%.

Question: And the inhibition at 1 µM [31]?
Answer: Its inhibition at 1 µM is 6.5%.

Question: And the inhibition at 1 µM [32]?
Answer: Its inhibition at 1 µM is 4.6%.

Question: What about the inhibition at 1 µM [33] of the same compound?
Answer: The inhibition at 1 µM was 15%.

Question: And the inhibition at 1 µM [34]?
Answer: The inhibition at 1 µM was 8.7%.

Question: What about the inhibition at 1 µM [35] of the same compound?
Answer: Its inhibition at 1 µM is 72.3%.

Question: And the inhibition at 1 µM [36]?
Answer: The inhibition at 1 µM was 7.8%.

Question: What about the inhibition at 1 µM [37] of the same compound?
Answer: The inhibition at 1 µM was 2.1%.

Question: And the inhibition at 1 µM [38]?
Answer: Its inhibition at 1 µM is 0%.

Question: And the inhibition at 1 µM [39]?
Answer: The inhibition at 1 µM was 7.3%.

Question: What about the inhibition at 1 µM [40] of the same compound?
Answer: The inhibition at 1 µM was 99.9%.

Question: What about the inhibition at 1 µM [41] of the same compound?
Answer: The inhibition at 1 µM was 9.3%.

Question: And the inhibition at 1 µM [42]?
Answer: The inhibition at 1 µM was 60.8%.
